Test results taken from patent US20110152263A1, “COMPOSITION AND METHOD FOR INHIBITING NOROVIRUS INFECTION” (priority 2006, published 2011).

Key:
[1] = molecular target: VA207 binding to the Lewis antigens; assay: Saliva-based blocking EIA: VA207 VLP binding to Lewis antigens; design: species or system Norovirus; conditions: VA207 VLP binding to Lewis antigen; read-out: EC50 rVA207 Le
From the text: (§1) A saliva based blocking assay offers several advantages for anti-Norovirus agent screening. First, the assay is a solid phase blocking assay which is simple and suitable for large scale screening. Second, the source of HBGAs used in the assay was from healthy human volunteers, which is likely to represent the natural forms of Norovirus receptors. Third, the assay is highly sensitive and specific. Finally, a panel of saliva samples can be assembled from different individuals representing different blood types, from which the results obtained in primary screenings can be validated.
(§2) To optimize the blocking assays, we have titrated all reagents used in the assays including the VLPs, the first and second antibodies, the blocking reagent (dried cow milk), and a panel of saliva samples from different donors. […] For comparison of daily results, eight control wells containing everything but compounds were included in each plate, and the assays were considered valid when the daily OD450 variations in these wells were less than 20%. Less than 1% of the total screening runs failed in our study.
(§3) Cow milk contains a large amount of variable proteins, lipids and glycans which can easily interfere with the assay particularly when a low concentration of compounds (μM) was used in our screening. To avoid any false-negative results, the step of addition of blotto in the EIA for all screening experiments in this study was removed.
(§4) Baculovirus-expressed recombinant capsid proteins of four Norovirus strains representing four distinct receptor binding patterns were studied: Norovirus strains Norwalk, VA387, VA207, and MOH. The procedures of production of Norovirus VLPs in insect cell Spodoptera frugiperda (Sf9) have described in “Expression, self-assembly, and antigenicity of the Norwalk virus capsid protein”, J Virol 66:6527-32, Jiang et al (1992), and in “Baculovirus expression and antigenic characterization of the capsid proteins of three Norwalk-like viruses”, Arch Virol 147:119-30, Jiang et al. (2002), the disclosures of which are incorporated herein by reference. Briefly, a cDNA from the 3′ end of the genome containing the viral capsid gene (open reading frame 2 [ORF-2] was cloned from the viral RNA extracted from stool specimens. The recombinant baculoviruses carry the viral capsid genes were constructed from the cloned cDNAs using the Bac to Bac expression system according to the manufacture's instructions (Invitrogen Life Technologies, Carlsbad, Calif.). VLPs were partially purified by sucrose gradient centrifugation and stored at −80° C. Protein concentrations were determined by measuring the optical density at 280 nm (OD280) using a GeneQuant spectrophotometer (Pharmacia, Mich.) and by comparison with a bovine serum albumin standard in a sodium dodecyl sulfate-polyacrylamide gel (25). The purity of VLPs used in this study was over 90% which was determined by SDS-PAGE analysis.
(§5) Saliva samples were collected from healthy adult volunteers under an approval of human subject research protocol by the Institutional Review Board at the Cincinnati Children's Hospital Medical Center. Except for gender and race, no other personal information was collected. A total of 5-10 ml of saliva was collected from each volunteer, and the samples were processed immediately after collection. To avoid potential Norovirus-specific antibodies that may interfere in the receptor binding assays, saliva samples were boiled at 100° C. for 10 min, and then centrifuged at 10,000×g for 5 min. The clear supernatant was stored at −80° C. until use. The HBGA types of the saliva samples were determined by enzyme immune assays with monoclonal antibodies specific to human HBGAs (8). Saliva sample from a type A donor was selected for the primary screening, and a total of 25 saliva samples of known ABO, secretor, and Lewis types were selected for further studies to confirm the primary screening results. […]

[2] = tested on: Norwalk virus binding to the H antigen; assay: Saliva-based blocking EIA: Norwalk virus VLP binding to H antigen; design: species or system Norovirus; conditions: for EC50: Norwalk VLP binding to H antigen, read-out: EC50 rNorwalk H
From the text: as §1, §2, §3, §4, §5

[3] = molecular target: MOH binding to the A antigen; assay: Saliva-based blocking EIA: MOH VLP binding to A antigen; design: species or system Norovirus; conditions: MOH VLP binding to type A saliva; read-out: EC50 rMOH A
From the text: as §1, §2, §3, §4, §5

[4] = molecular target: VA387 binding to the B antigen; assay: Saliva-based blocking EIA: VA387 VLP binding to B antigen; design: species or system Norovirus; conditions: for EC50: VA387 VLP binding to B antigen saliva, read-out: EC50 rVA387 B; for inhibition of VA387 binding to the B antigen: one saliva sample
From the text: as §1, §2, §3, §4, §5

[5] = tested on: Norwalk virus binding to the A antigen; assay: Saliva-based blocking EIA: Norwalk virus VLP binding to A antigen; design: species or system Norovirus; conditions: for EC50: Norwalk VLP binding to A antigen, read-out: EC50 rNorwalk A
From the text: as §1, §2, §3, §4, §5

[6] = molecular target: MOH binding to the B antigen; assay: Saliva-based blocking EIA: MOH VLP binding to B antigen; design: species or system Norovirus; conditions: MOH VLP binding to type B saliva; read-out: EC50 rMOH B
From the text: as §1, §2, §3, §4, §5

[7] = molecular target: VA387 binding to the H antigen; assay: Saliva-based blocking EIA: VA387 VLP binding to H antigen; design: species or system Norovirus; conditions: for EC50: VA387 VLP binding to H antigen saliva, read-out: EC50 rVA387 H; for inhibition of VA387 binding to the H antigen: one saliva sample
From the text: as §1, §2, §3, §4, §5

[8] = molecular target: VA387 VLPs binding to the A antigen; assay: Saliva-based blocking EIA: VA387 VLP binding to type A saliva; design: species or system Norovirus; conditions: read-out: EC50 rVA387 A
From the text: as §1, §2, §3, §4, §5

[9] = tested on: Human cervical carcinoma cells (HeLa); assay: MTS cytotoxicity assay, HeLa cells; format: cell-based; conditions: 3 days, average of three experiments

| SMILES | EC50 [1] | inhibition of Norwalk virus binding to the H antigen [2] | EC50 [2] | EC50 [3] | EC50 [4] | inhibition of VA387 binding to the B antigen [4] | blocking of Norwalk virus binding to the A antigen [5] | EC50 [5] | EC50 [6] | EC50 [7] | inhibition of VA387 binding to the H antigen [7] | EC50 [8] | CC50 [9] |
| --- | --- | --- | --- | --- | --- | --- | --- | --- | --- | --- | --- | --- | --- |
| CCC[n+]1cc(-c2ccccc2)nc(N2CCOCC2)n1.[I-] [Compound 1] | > 100 µM | inhibited | 18.9 µM | > 100 µM | 5.8 µM | dose-dependant inhibition | blocked | 15.6 µM | > 100 µM | 6.8 µM | dose-dependant inhibition | 2.2 µM |  |
| CCOC(=O)C1=C(C)OC(N)=C(C#N)C1c1ccc(OCc2ccc(C)cc2)c([N+](=O)[O-])c1 (stereo not drawn) [Compound 2] | > 100 µM | inhibited | 24.5 µM | 16.5 µM | 18.6 µM | dose-dependant inhibition | blocked | 22.9 µM | 13.3 µM | 11.9 µM | dose-dependant inhibition | 4.8 µM | 78.6 µM |
| C=C(SCCNC(=O)NCCCCCCNC(=O)NCCSc1ccccc1O)C(C)=CC [Compound 4] | > 100 µM | inhibited | 22.6 µM | > 100 µM | 13.1 µM | dose-dependant inhibition | blocked | 14.1 µM | > 100 µM | 14.2 µM | dose-dependant inhibition | 8.1 µM |  |
| CCCc1ccc(OCc2ccc(C(=O)N/N=C/c3ccc(Cl)cc3O)o2)cc1 [Compound 5] | > 100 µM | inhibited | 36.3 µM | > 100 µM | 13.5 µM | dose-dependant inhibition | blocked | 18.2 µM | > 100 µM | 7.2 µM | dose-dependant inhibition | 9.1 µM | 46.7 µM |
| O=CC(=O)c1ccc2c(c1)Cc1cc(C(=O)C=O)ccc1-2 [Compound 6] | > 100 µM |  | > 100 µM | > 100 µM | 44.6 µM | dose-dependant inhibition |  | > 100 µM | > 100 µM | 41.1 µM | dose-dependant inhibition | 9.3 µM | 52.7 µM |
| Oc1ccc(C=Nc2nccs2)c(O)c1 [Compound 7] | > 100 µM |  | > 100 µM | > 100 µM | 26 µM | dose-dependant inhibition |  | > 100 µM | > 100 µM | 7.6 µM | dose-dependant inhibition | 9.6 µM |  |
| O=C(/C=C/c1ccc(-c2cc(Cl)cc(Cl)c2)o1)c1cccs1 [Compound 8] | > 100 µM |  | > 100 µM | > 100 µM | > 100 µM | did not have any inhibitory activity |  | > 100 µM | > 100 µM | > 100 µM | did not have any inhibitory activity | 10.9 µM |  |
